Reference: patent US7888363B2, “Viral polymerase inhibitors” (Boehringer Ingelheim International GmbH, priority 2003, dated 2011)

What follows are compounds tested against hepatitis C virus RNA dependant polymerase (NS5B) (Hepatitis C virus genotype 1b, UniProt P26663) (assay: Inhibition of NS5B RNA dependent RNA polymerase activity). Details: Table 4; class ranges.
Assay type: biochemical
Protocol: A suitable assay is described in the examples.
Inhibition of NS5B RNA Dependent RNA Polymerase Activity
The compounds of the invention were tested for inhibitory activity against the hepatitis C virus RNA dependant polymerase (NS5B), according to protocol described in WO 03/010141

hepatitis C virus RNA dependant polymerase (NS5B), sequence (P26663 2420-3010): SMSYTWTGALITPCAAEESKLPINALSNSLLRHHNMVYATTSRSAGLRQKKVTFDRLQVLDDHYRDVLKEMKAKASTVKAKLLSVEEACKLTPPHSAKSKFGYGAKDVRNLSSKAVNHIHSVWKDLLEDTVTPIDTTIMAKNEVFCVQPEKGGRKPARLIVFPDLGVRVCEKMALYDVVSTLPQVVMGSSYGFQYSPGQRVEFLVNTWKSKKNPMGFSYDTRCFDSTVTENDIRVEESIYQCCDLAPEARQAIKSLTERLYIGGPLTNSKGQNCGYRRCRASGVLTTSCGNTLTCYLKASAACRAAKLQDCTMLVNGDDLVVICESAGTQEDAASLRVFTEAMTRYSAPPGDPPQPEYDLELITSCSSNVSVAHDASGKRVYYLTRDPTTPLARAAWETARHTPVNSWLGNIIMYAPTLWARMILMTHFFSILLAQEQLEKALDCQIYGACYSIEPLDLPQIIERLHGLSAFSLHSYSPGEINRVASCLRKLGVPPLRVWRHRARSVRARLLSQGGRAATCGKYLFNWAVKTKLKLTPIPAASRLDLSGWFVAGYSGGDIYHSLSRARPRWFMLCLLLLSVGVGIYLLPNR

IC50 | Compound
200 to 1000 nM | CN1CCN(C(=O)Cn2c(-c3ccoc3)c(C3CCCCC3)c3ccc(C(=O)NC4(CO)CCCC4)cc32)CC1 [Example 4027]
200 to 1000 nM | CNC(=O)c1ccc2c(C3CCCCC3)c(-c3ccoc3)n(CC(=O)N3CCN(C)CC3)c2c1 [Example 4028]
< 200 nM | CN1CCN(C(=O)Cn2c(-c3ccoc3)c(C3CCCCC3)c3ccc(C(=O)NCc4ccc(O)c(O)c4)cc32)CC1 [Example 4029]
< 200 nM | COc1cc(CNC(=O)c2ccc3c(C4CCCCC4)c(-c4ccoc4)n(CC(=O)N4CCN(C)CC4)c3c2)ccc1O [Example 4030]
200 to 1000 nM | CN1CCN(C(=O)Cn2c(-c3ccoc3)c(C3CCCCC3)c3ccc(C(=O)NCC(=O)c4ccccc4)cc32)CC1 [Example 4031]
< 200 nM | CN1CCN(C(=O)Cn2c(-c3ccoc3)c(C3CCCCC3)c3ccc(C(=O)NCc4ccc(S(N)(=O)=O)cc4)cc32)CC1 [Example 4032]
1000 to 10000 nM | CN1CCN(C(=O)Cn2c(-c3ccoc3)c(C3CCCCC3)c3ccc(C(=O)NC4CCS(=O)(=O)C4)cc32)CC1 (stereo not shown) [Example 4033]
200 to 1000 nM | CN1CCN(C(=O)Cn2c(-c3ccoc3)c(C3CCCCC3)c3ccc(C(=O)NCC4CC4)cc32)CC1 [Example 4034]
200 to 1000 nM | CN1CCN(C(=O)Cn2c(-c3ccoc3)c(C3CCCCC3)c3ccc(C(=O)NCCc4ccncc4)cc32)CC1 [Example 4035]
200 to 1000 nM | CN1CCN(C(=O)Cn2c(-c3ccoc3)c(C3CCCCC3)c3ccc(C(=O)NC4CCN(Cc5ccccc5)C4)cc32)CC1 (stereo not shown) [Example 4036]
1000 to 10000 nM | CN1CCN(C(=O)Cn2c(-c3ccoc3)c(C3CCCCC3)c3ccc(C(=O)NC(C)(C)Cc4ccccc4)cc32)CC1 [Example 4037]
200 to 1000 nM | C[C@@H](NC(=O)c1ccc2c(C3CCCCC3)c(-c3ccoc3)n(CC(=O)N3CCN(C)CC3)c2c1)c1ccccc1 [Example 4039]
200 to 1000 nM | CN1CCN(C(=O)Cn2c(-c3ccoc3)c(C3CCCCC3)c3ccc(C(=O)NCCc4cccnc4)cc32)CC1 [Example 4040]
< 200 nM | CN1CCN(C(=O)Cn2c(-c3ccoc3)c(C3CCCCC3)c3ccc(C(=O)NCc4ccc(S(C)(=O)=O)cc4)cc32)CC1 [Example 4041]
< 200 nM | COc1cccc([C@@H](C)NC(=O)c2ccc3c(C4CCCCC4)c(-c4ccoc4)n(CC(=O)N4CCN(C)CC4)c3c2)c1 [Example 4042]
< 200 nM | COc1ccc([C@@H](C)NC(=O)c2ccc3c(C4CCCCC4)c(-c4ccoc4)n(CC(=O)N4CCN(C)CC4)c3c2)cc1 [Example 4043]
200 to 1000 nM | Cc1cnc(CNC(=O)c2ccc3c(C4CCCCC4)c(-c4ccoc4)n(CC(=O)N4CCN(C)CC4)c3c2)cn1 [Example 4044]
200 to 1000 nM | O=C(NCc1ccc2c(c1)OCO2)c1ccc2c(C3CCCCC3)c(-c3ccoc3)n(CC(=O)N3CCOCC3)c2c1 [Example 4045]
200 to 1000 nM | O=C(NCc1ccccn1)c1ccc2c(C3CCCCC3)c(-c3ccoc3)n(CC(=O)N3CCOCC3)c2c1 [Example 4046]
200 to 1000 nM | O=C(NCc1ccccc1)c1ccc2c(C3CCCCC3)c(-c3ccoc3)n(CC(=O)N3CCOCC3)c2c1 [Example 4047]
1000 to 10000 nM | O=C(NCCc1ccccc1)c1ccc2c(C3CCCCC3)c(-c3ccoc3)n(CC(=O)N3CCOCC3)c2c1 [Example 4048]
200 to 1000 nM | CNC(=O)c1ccc2c(C3CCCCC3)c(-c3ccoc3)n(CC(=O)N3CCOCC3)c2c1 [Example 4049]

IC50 | Compound
200 to 1000 nM | O=C(NCCc1ccncc1)c1ccc2c(C3CCCCC3)c(-c3ccoc3)n(CC(=O)N3CCOCC3)c2c1 [Example 4050]
200 to 1000 nM | COc1ccc([C@@H](C)NC(=O)c2ccc3c(C4CCCCC4)c(-c4ccoc4)n(CC(=O)N4CCOCC4)c3c2)cc1 [Example 4051]
200 to 1000 nM | CN(C)C(=O)Cn1c(-c2ccoc2)c(C2CCCCC2)c2ccc(C(=O)NCc3ccc4c(c3)OCO4)cc21 [Example 4052]
200 to 1000 nM | CN(C)C(=O)Cn1c(-c2ccoc2)c(C2CCCCC2)c2ccc(C(=O)NCc3ccccn3)cc21 [Example 4053]
200 to 1000 nM | CN(C)C(=O)Cn1c(-c2ccoc2)c(C2CCCCC2)c2ccc(C(=O)NCc3ccccc3)cc21 [Example 4054]
200 to 1000 nM | CN(C)C(=O)Cn1c(-c2ccoc2)c(C2CCCCC2)c2ccc(C(=O)NCCc3ccccc3)cc21 [Example 4055]
200 to 1000 nM | CNC(=O)c1ccc2c(C3CCCCC3)c(-c3ccoc3)n(CC(=O)N(C)C)c2c1 [Example 4056]
200 to 1000 nM | CN(C)C(=O)Cn1c(-c2ccoc2)c(C2CCCCC2)c2ccc(C(=O)NCCc3ccncc3)cc21 [Example 4057]
< 200 nM | C[C@@H](NC(=O)c1ccc2c(C3CCCCC3)c(-c3ccoc3)n(CC(=O)N(C)C)c2c1)c1ccccc1 [Example 4058]
< 200 nM | COc1ccc([C@@H](C)NC(=O)c2ccc3c(C4CCCCC4)c(-c4ccoc4)n(CC(=O)N(C)C)c3c2)cc1 [Example 4059]
200 to 1000 nM | CC(C)(NC(=O)c1ccc2c(C3CCCCC3)c(-c3ccoc3)n(CC(=O)N3CCC(N4CCCC4)CC3)c2c1)c1ccccc1 [Example 4060]
< 200 nM | O=C(NCc1ccc(O)c(O)c1)c1ccc2c(C3CCCCC3)c(-c3ccoc3)n(CC(=O)N3CCOCC3)c2c1 [Example 4062]
200 to 1000 nM | COc1ccc([C@@H](C)NC(=O)c2ccc3c(C4CCCCC4)c(-c4ccoc4)n(CC(=O)N4CCOCC4)c3c2)cc1OC [Example 4063]
200 to 1000 nM | COc1cc(CNC(=O)c2ccc3c(C4CCCCC4)c(-c4ccoc4)n(CC(=O)N4CCOCC4)c3c2)ccc1O [Example 4064]
1000 to 10000 nM | O=C(NC(=O)c1ccc2c(C3CCCCC3)c(-c3ccoc3)n(CC(=O)N3CCOCC3)c2c1)c1ccccc1 [Example 4065]
< 200 nM | O=C(O)C=Cc1ccc2nc(C3(NC(=O)c4ccc5c(C6CCCCC6)c(-c6ccoc6)n(CC(=O)N6CCOCC6)c5c4)CCC3)[nH]c2c1 [Example 4067]
< 200 nM | CN1CCC(NC(=O)c2ccc3c(C4CCCC4)c(-c4ccoc4)n(CC(=O)N4CCOCC4)c3c2)(c2nc3ccc(C=CC(=O)O)cc3[nH]2)C1 (stereo not shown) [Example 4068]
< 200 nM | CN1CCC(NC(=O)c2ccc3c(C4CCCCC4)c(-c4ccoc4)n(CC(=O)N4CCOCC4)c3c2)(c2nc3ccc(C=CC(=O)O)cc3[nH]2)C1 (stereo not shown) [Example 4069]
< 200 nM | O=C(O)C=Cc1ccc2nc(C3(NC(=O)c4ccc5c(C6CCCC6)c(-c6ccoc6)n(CC(=O)N6CCOCC6)c5c4)CCC3)[nH]c2c1 [Example 4070]
200 to 1000 nM | C#CC1(NC(=O)c2ccc3c(C4CCCCC4)c(-c4ccoc4)n(CC(=O)N4CCOCC4)c3c2)CCCCC1 [Example 4071]
< 200 nM | NC(=O)C1(NC(=O)c2ccc3c(C4CCCCC4)c(-c4ccoc4)n(CC(=O)N4CCOCC4)c3c2)CCCC1 [Example 4072]
200 to 1000 nM | COC(=O)C1(NC(=O)c2ccc3c(C4CCCCC4)c(-c4ccoc4)n(CC(=O)N4CCOCC4)c3c2)CCCC1 [Example 4073]

IC50 | Compound
200 to 1000 nM | O=C(NC1(C(=O)O)CCCC1)c1ccc2c(C3CCCCC3)c(-c3ccoc3)n(CC(=O)N3CCOCC3)c2c1 [Example 4074]
200 to 1000 nM | COC(=O)C(C)(C)NC(=O)c1ccc2c(C3CCCCC3)c(-c3ccoc3)n(CC(=O)N3CCOCC3)c2c1 [Example 4075]
200 to 1000 nM | COC(=O)C1(NC(=O)c2ccc3c(C4CCCCC4)c(-c4ccoc4)n(CC(=O)N4CCOCC4)c3c2)CCCCC1 [Example 4076]
< 200 nM | CC(C)(NC(=O)c1ccc2c(C3CCCCC3)c(-c3ccoc3)n(CC(=O)N3CCOCC3)c2c1)C(N)=O [Example 4077]
200 to 1000 nM | O=C(NC1(C(=O)O)CCCCC1)c1ccc2c(C3CCCCC3)c(-c3ccoc3)n(CC(=O)N3CCOCC3)c2c1 [Example 4078]
200 to 1000 nM | NC(=O)C1(NC(=O)c2ccc3c(C4CCCCC4)c(-c4ccoc4)n(CC(=O)N4CCOCC4)c3c2)CCCCC1 [Example 4079]
200 to 1000 nM | COC(=O)C1(NC(=O)c2ccc3c(C4CCCCC4)c(-c4ccoc4)n(CC(=O)N4CCOCC4)c3c2)COCOC1 [Example 4080]
< 200 nM | CC(C)(NC(=O)c1ccc2c(C3CCCCC3)c(-c3ccoc3)n(CC(=O)N3CCC(N4CCCC4)CC3)c2c1)C(N)=O [Example 4081]
< 200 nM | Cn1c(C2(NC(=O)c3ccc4c(C5CCCCC5)c(-c5ccoc5)n(CC(=O)N5CCOCC5)c4c3)CCC2)nc2ccc(C=CC(=O)O)cc21 [Example 4082]
< 200 nM | O=C(NC1(C(=O)O)COCOC1)c1ccc2c(C3CCCCC3)c(-c3ccoc3)n(CC(=O)N3CCOCC3)c2c1 [Example 4083]
< 200 nM | CNC(=O)C(C)(C)NC(=O)c1ccc2c(C3CCCCC3)c(-c3ccoc3)n(CC(=O)N3CCC(N4CCCC4)CC3)c2c1 [Example 4084]
< 200 nM | NC(=O)C1(NC(=O)c2ccc3c(C4CCCCC4)c(-c4ccoc4)n(CC(=O)N4CCOCC4)c3c2)COCOC1 [Example 4085]
< 200 nM | CN(C)C(=O)C(C)(C)NC(=O)c1ccc2c(C3CCCCC3)c(-c3ccoc3)n(CC(=O)N3CCC(N4CCCC4)CC3)c2c1 [Example 4086]
< 200 nM | CC(C)(NC(=O)c1ccc2c(C3CCCCC3)c(-c3ccoc3)n(CC(=O)N3CCOCC3)c2c1)C(=O)O [Example 4087]
< 200 nM | Cc1c(C2(NC(=O)c3ccc4c(C5CCCCC5)c(-c5ccoc5)n(CC(=O)N5CCOCC5)c4c3)CCC2)oc2ccc(C(=O)O)cc12 [Example 4088]
< 200 nM | CNC(=O)C1(NC(=O)c2ccc3c(C4CCCCC4)c(-c4ccoc4)n(CC(=O)N4CCC(N5CCCC5)CC4)c3c2)CCC1 [Example 4089]
< 200 nM | N#CC1(NC(=O)c2ccc3c(C4CCCCC4)c(-c4ccoc4)n(CC(=O)N4CCC(N5CCCC5)CC4)c3c2)CCC1 [Example 4090]
200 to 1000 nM | CNC(=O)C1(NC(=O)c2ccc3c(C4CCCCC4)c(-c4ccoc4)n(CC(=O)N4CCOCC4)c3c2)CCC1 [Example 4091]
< 200 nM | NC(=O)C1(NC(=O)c2ccc3c(C4CCCCC4)c(-c4ccoc4)n(CC(=O)N4CCOCC4)c3c2)CCC1 [Example 4092]
< 200 nM | CN(C)C(=O)C1(NC(=O)c2ccc3c(C4CCCCC4)c(-c4ccoc4)n(CC(=O)N4CCOCC4)c3c2)CCC1 [Example 4093]
